ChEMBL document CHEMBL1154564 (J Nat Prod, 2000)

Assays:
[1] = species on record: Rattus norvegicus; test: Selectivity ratio of IC50 for Wistar rat dopamine D2 receptor to IC50 for Wistar rat dopamine D1 receptor
[2] = molecular target: D(1A) dopamine receptor (Rattus norvegicus, UniProt P18901); test: Displacement of [3H]SCH23390 from dopamine D1 receptor in Wistar rat striatal membrane; format: cell membranes, Striatum
[3] = molecular target: D(2) dopamine receptor (Rattus norvegicus, UniProt P61169); test: Displacement of [3H]raclopride from dopamine D2 receptor in Wistar rat striatal membrane; format: cell membranes, Striatum
[4] = molecular target: T1, Alpha-1B adrenergic receptor (Rattus norvegicus, UniProt P15823); test: Displacement of [3H]prazosin from adrenergic Alpha-1B receptor in rat brain membrane; format: cell membranes
T1 sequence (P15823 whole entry): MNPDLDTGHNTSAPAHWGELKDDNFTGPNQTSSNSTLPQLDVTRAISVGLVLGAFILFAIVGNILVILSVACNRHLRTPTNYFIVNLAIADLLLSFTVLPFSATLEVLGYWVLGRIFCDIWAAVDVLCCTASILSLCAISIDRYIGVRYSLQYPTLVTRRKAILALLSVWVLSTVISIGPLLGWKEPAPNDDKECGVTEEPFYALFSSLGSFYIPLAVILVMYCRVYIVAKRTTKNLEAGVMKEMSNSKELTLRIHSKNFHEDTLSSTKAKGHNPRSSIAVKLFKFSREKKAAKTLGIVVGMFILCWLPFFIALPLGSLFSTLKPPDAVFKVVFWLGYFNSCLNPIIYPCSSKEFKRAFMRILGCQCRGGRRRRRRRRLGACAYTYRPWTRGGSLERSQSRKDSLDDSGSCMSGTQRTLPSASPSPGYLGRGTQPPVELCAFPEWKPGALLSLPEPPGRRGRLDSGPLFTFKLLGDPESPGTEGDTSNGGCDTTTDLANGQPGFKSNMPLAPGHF

[5] = molecular target: T2, Alpha-1A adrenergic receptor (Rattus norvegicus, UniProt P43140); test: Displacement of [3H]prazosin from adrenergic alpha1A receptor in rat brain membrane; format: cell membranes
T2 sequence (P43140 whole entry): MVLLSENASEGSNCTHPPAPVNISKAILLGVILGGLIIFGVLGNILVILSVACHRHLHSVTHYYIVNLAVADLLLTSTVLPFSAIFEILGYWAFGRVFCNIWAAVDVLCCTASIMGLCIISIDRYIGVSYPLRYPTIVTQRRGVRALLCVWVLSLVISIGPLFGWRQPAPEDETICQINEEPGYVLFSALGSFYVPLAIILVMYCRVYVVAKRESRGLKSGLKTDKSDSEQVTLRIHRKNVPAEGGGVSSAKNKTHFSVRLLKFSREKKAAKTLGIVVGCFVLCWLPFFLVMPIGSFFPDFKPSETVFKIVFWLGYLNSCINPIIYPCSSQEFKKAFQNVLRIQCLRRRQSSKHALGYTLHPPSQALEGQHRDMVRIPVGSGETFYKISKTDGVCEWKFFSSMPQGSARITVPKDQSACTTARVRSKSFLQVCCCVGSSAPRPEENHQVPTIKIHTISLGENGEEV

[6] = species on record: Rattus norvegicus; test: Selectivity ratio of IC50 for rat adrenergic alpha1A receptor to IC50 for adrenergic Alpha-1B receptor

Chain of D(2) dopamine receptor (P61169 whole entry): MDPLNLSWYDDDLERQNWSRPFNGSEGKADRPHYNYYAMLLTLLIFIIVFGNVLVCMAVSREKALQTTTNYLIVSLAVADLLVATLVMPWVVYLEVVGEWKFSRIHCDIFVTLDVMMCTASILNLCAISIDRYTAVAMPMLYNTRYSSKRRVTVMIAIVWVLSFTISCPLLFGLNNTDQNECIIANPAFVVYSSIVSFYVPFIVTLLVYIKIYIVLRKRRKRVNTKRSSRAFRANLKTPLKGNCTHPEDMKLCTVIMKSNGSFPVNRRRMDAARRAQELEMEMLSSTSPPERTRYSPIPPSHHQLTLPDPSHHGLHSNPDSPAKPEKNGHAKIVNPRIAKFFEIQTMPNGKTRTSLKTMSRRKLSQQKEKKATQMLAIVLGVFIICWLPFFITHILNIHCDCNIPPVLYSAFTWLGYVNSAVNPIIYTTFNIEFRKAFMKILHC
Chain of D(1A) dopamine receptor (P18901 whole entry): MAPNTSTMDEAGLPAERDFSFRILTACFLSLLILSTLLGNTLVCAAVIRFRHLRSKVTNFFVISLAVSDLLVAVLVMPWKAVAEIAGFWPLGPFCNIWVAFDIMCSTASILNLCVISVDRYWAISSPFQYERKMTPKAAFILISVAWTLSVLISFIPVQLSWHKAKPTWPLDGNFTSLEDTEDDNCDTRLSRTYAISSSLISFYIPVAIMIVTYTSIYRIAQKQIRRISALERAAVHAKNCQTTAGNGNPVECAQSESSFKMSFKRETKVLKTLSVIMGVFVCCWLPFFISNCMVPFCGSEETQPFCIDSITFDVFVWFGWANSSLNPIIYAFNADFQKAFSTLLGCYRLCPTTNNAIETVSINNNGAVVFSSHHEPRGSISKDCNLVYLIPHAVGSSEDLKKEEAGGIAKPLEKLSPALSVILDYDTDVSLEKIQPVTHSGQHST

| SMILES | Ratio IC50 [1] | IC50 [2] [nM] | IC50 [3] [nM] | Ki [4] [nM] | Ki [5] [nM] | Ratio [6] |
| --- | --- | --- | --- | --- | --- | --- |
| COc1cc2c(cc1O)C[C@H]1c3c(c(I)c(O)c(OC)c3-2)CCN1C | 32 | 3 | 96 |  |  |  |
| COc1cc2c(c(Br)c1O)C[C@H]1c3c(c(Br)c(O)c(OC)c3-2)CCN1C | 9.3 | 206 | 1910 | 120 | 1.35 | 90 |
| COc1cc2c(cc1O)C[C@H]1c3c(cc(O)c(OC)c3-2)CCN1C [BOLDINE] |  |  |  | 316 | 4.9 |  |
| COc1cc2c(cc1O)C[C@H]1c3c(c(Br)c(O)c(OC)c3-2)CCN1C [3-BROMOBOLDINE] | 15.9 | 66 | 1050 | 135 | 1.17 | 120 |
| COc1cc2c(cc1O)C[C@H]1c3c(c(Cl)c(O)c(OC)c3-2)CCN1C | 8.9 | 81 | 720 | 269 | 2.24 | 122 |
